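Five concentrations, 48 hours, 96-well plates. The concentration for 50% growth inhibition is given as GI50. TGI: concentration producing complete growth inhibition.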
System: MDA-MB-468 breast
Assay: DTP human tumour cell line panel, 48 h

SMILES: CCNc1cc(-c2cccc(OC(F)(F)F)c2)nc2ccc(N3CCCC3)cc12
- GI50: 1.4 µM
- TGI: 3.35 µM

SMILES: O=C(/C=C/c1ccccc1)C(Br)C(Br)c1ccccc1 (stereo not given)
- GI50: 1.31 µM
- TGI: 3.48 µM

SMILES: CCOC(=O)C(Cc1c[nH]c2c(N(CCO)CCO)cccc12)(NC(C)=O)C(=O)OCC
- TGI: 132 µM

Reference: PubChem BioAssay (NCI)
